According to US20110218100A1 (priority 2005, published 2011):

Columns and labels:
[1] = tested on: Pyrenophora teres; assay: Pyrenophora teres (barley) test/curative; type: in vivo; settings: curative spray, 50 g/ha of each active compound, evaluation 8 days after inoculation
Experimental: (§1) Solvent: 50 parts by weight of N,N-dimethylacetamide Emulsifier: 1 part by weight of alkylaryl polyglycol ether
To produce a suitable preparation of active compound, 1 part by weight of active compound is mixed with the stated amounts of solvent and emulsifier, and the concentrate is diluted with water to the desired concentration or the active compound or a combination of active compounds in a commercially available formulation is diluted with water to the desired concentration.
To test for curative activity, young plants are sprayed with a conidia suspension of Pyrenophora teres. The plants remain for 48 hours in an incubation cabinet at 20° C. and a relative atmospheric humidity of 100% and are then sprayed with the preparation of active compound at the stated rate of application.
The plants are placed in a greenhouse at a temperature of approximately 20° C. and a relative atmospheric humidity of approximately 80%.
The test is evaluated 8 days after the inoculation.

[2] = tested on: Erysiphe graminis f.sp. tritici; assay: Erysiphe test (wheat)/curative; type: in vivo; settings: curative spray, 125 g/ha of each active compound, evaluation 8 days after inoculation
Experimental: as §1
To produce a suitable preparation of active compound, 1 part by weight of active compound is mixed with the stated amounts of solvent and emulsifier, and the concentrate is diluted with water to the desired concentration.
To test for curative activity, young plants are sprayed with spores of Erysiphe graminis f.sp. tritici. 48 hours after the inoculation, the plants are sprayed with the preparation of active compound at the stated application rate. The plants are placed in a greenhouse at a temperature of about 20° C. and a relative atmospheric humidity of about 80% to promote the development of mildew pustules. Evaluation is carried out 8 days after the inoculation. What is determined is the efficacy in %. 0% means an efficacy which corresponds to that of the control, whereas an efficacy of 100% means that no infection is observed.

[3] = tested on: Fusarium graminearum; type: in vivo; settings: barley, curative spray, 125 g/ha of each active compound, evaluation 7 days after inoculation
[4] = tested on: Penicillium brevicaule; assay: Penicillium brevicaule test (in vitro)/microtest; type: cell-based; settings: 4 days incubation, optical density
Experimental: The microtest was performed in liquid medium with potato-dextrose broth (PDB) using microtitre plates.
The active compound is applied as the technical active substance dissolved in aceton.
A spore suspension of Penicillium brevicaule was used for inoculation. After 4 days of incubation by darkness under shaking (10 Hrz), the optical density in each cavity was evaluated with the aid of a microtitre plate reader.
0% means an efficacy which corresponds to that of the control, while an efficacy of 100% means that no fungal growth is observed.

Structure (SMILES): OC(Cc1ccccc1Cl)(Cn1nc[nH]c1=S)C1(Cl)CC1 (centres unmarked) [(II-15), prothioconazole]
- Efficacy in % (Act = actual efficacy) [1]: 22%
- Efficacy in % found [2]: 33%
- Efficacy in % found [3]: 58%

Structure (SMILES): CC(C)C1CCC(Cc2ccc(Cl)cc2)C1(O)Cn1cncn1 (centres unmarked) [(II-18), ipconazole]
- Efficacy in % ([4]; 0.003 ppm): 8%

Structure (SMILES): CON=C(C(=O)OC)c1ccccc1CON=C(C)c1cccc(C(F)(F)F)c1 [(III-4), trifloxystrobin]
- Efficacy in % ([4]; 0.003 ppm): 1%

Structure (SMILES): CO/N=C(/C1=NOCCO1)c1ccccc1Oc1ncnc(Oc2ccccc2Cl)c1F [(III-2), fluoxastrobin]
- Efficacy in % (Act = actual efficacy) [1]: 22%
- Efficacy in % found [2]: 39%
- Efficacy in % found [3]: 50%

Structure (SMILES): Cn1cc(C(=O)Nc2ccc(F)cc2-c2ccc(Cl)c(Cl)c2)c(C(F)F)n1 [(I-23), N-(3′,4′-dichloro-5-fluoro-1,1′-biphenyl-2-yl)-3-(difluoromethyl)-1-methyl-1H-pyrazole-4-carboxamide]
- Efficacy in % (Act = actual efficacy) [1]: 22%

Structure (SMILES): Cc1nn(C)c(F)c1C(=O)Nc1ccccc1C(C)CC(C)C (centres unmarked) [(I-2), N-[2-(1,3-dimethylbutyl)phenyl]-5-fluoro-1,3-dimethyl-1H-pyrazole-4-carboxamide]
- Efficacy in % ([4]; 0.03 ppm): 16%
- Efficacy in % (Act = actual efficacy) [1]: 22%
- Efficacy in % found [2]: 0%
- Efficacy in % found [3]: 42%

Structure (SMILES): CC(C)(C)C(O)(CCc1ccc(Cl)cc1)Cn1cncn1 (centres unmarked) [(II-17), tebuconazole]
- Efficacy in % (Act = actual efficacy) [1]: 22%
